The conditions of this data set: rat, in vivo.

Ends that are not written are not given here.

In the case of RHAYRSMAEWGFLYS [PGD3-4], the Half-life came to 2.45 h.

Source of the values: publication PMC3012785 (Journal of neurochemistry, 2010).
